# Results taken from US20210220312A1, “Compositions And Methods For Modulating Cancer” (Tyme, Inc., priority 2020, published 2021).
# Tested on: HCT116 tumors
# Experiment: Antitumor effect of oral α-methyl-DL-tyrosine in athymic nude mice bearing HCT116 tumors
# Type: in vivo
# Experimental: A study was conducted to evaluate the antitumor effect of an oral formulations of α-methyl-DL-tyrosine in athymic nude mice bearing HCT116 tumors. Athymic nude mice (female, 6-7 weeks old) were purchased from Charles River Laboratories, USA. The mice were housed in a ventilated cage rack with HEAP filter system, with 12-hour light cycle at 21-24° C. (70-75° F.) and 40-60% humidity. The mice were fed with Rodent Diet 5001 (Lab Diet) consisting of: >23% protein; >4.5% fat; and >6% fiber. The mice were allowed free access to water ([…] water, 1 ppm CI). The mice were acclimated for 5 days prior to the implantation of HCT116 cells at 1 million cells per mouse in 100 ul of 1×PBS containing 50% Matrigel. At the completion of study, mice were euthanized with isoflurane followed by inhalation of carbon dioxide (CO2). The HCT116 cells (human colon carcinoma) were purchased from ATCC, and expanded to sufficient number of cells for tumor cell implantation. Solutions of α-methyl-DL-tyrosine at 16.2 mg/ml, 32.4 mg/ml, and 64.8 mg/ml in water were prepared After an acclimation period of 5 days, fifty (50) athymic nude female mice were inoculated in the thigh/flank area with 1 million of HCT116 cells suspended in 100 μl 1×PBS containing 50% Matrigel. Beginning at Day 6 post cell inoculation, the tumor volume was measured every day until the average tumor volume reached about 100 mm^3 (Tumor Volume=length×width×width×0.5). Forty-four (44) out of the fifty (50) mice within the range of 50-150 mm^3 were selected and randomly grouped into 4 groups (n=11): a control group treated with water ([…]), and 324 mg/kg (Group 4). The HCT-116 tumor bearing mice were oral gavage (PO) dosed daily at 5 ml/kg with water (Group 1), α-methyl-DL-tyrosine at 81 mg/kg (Group 2), α-methyl-DL-tyrosine at 162 mg/kg (Group 3), and α-methyl-DL-tyrosine at 324 mg/kg (Group 4) for 28 days. Clinical observations were made daily; tumor volume was measured every three to four days prior to dosing until the completion of study or when individual tumor volume exceeds 2000 mm^3.
smiles,measurement,setting,value
CC(N)(Cc1ccc(O)cc1)C(=O)O (racemic) [α-methyl-DL-tyrosine],tumor growth inhibition,"324 mg/kg daily PO, p<0.05, t-test",statistically significant
same,tumor inhibition,"324 mg/kg daily, Day 28",non-significant
same,HCT-116 Tumor volume (group average),"G2, 162 mg/kg [sic] PO daily, n = 11, Day 0 post 1st dosing",63.5 mm^3
same,HCT-116 Tumor volume (group average),"G2, 162 mg/kg [sic] PO daily, n = 11, Day 4 post 1st dosing",112.5 mm^3
same,HCT-116 Tumor volume (group average),"G2, 162 mg/kg [sic] PO daily, n = 11, Day 7 post 1st dosing",215.3 mm^3
same,HCT-116 Tumor volume (group average),"G2, 162 mg/kg [sic] PO daily, n = 11, Day 11 post 1st dosing",373.6 mm^3
same,HCT-116 Tumor volume (group average),"G2, 162 mg/kg [sic] PO daily, n = 11, Day 14 post 1st dosing",643.5 mm^3
same,HCT-116 Tumor volume (group average),"G2, 162 mg/kg [sic] PO daily, n = 11, Day 18 post 1st dosing",1022.3 mm^3
same,HCT-116 Tumor volume (group average),"G2, 162 mg/kg [sic] PO daily, n = 11, Day 21 post 1st dosing",1405.9 mm^3
same,HCT-116 Tumor volume (group average),"G2, 162 mg/kg [sic] PO daily, n = 11, Day 25 post 1st dosing",1592.4 mm^3
same,HCT-116 Tumor volume (group average),"G2, 162 mg/kg [sic] PO daily, n = 11, Day 28 post 1st dosing",1718.8 mm^3
same,HCT-116 Tumor volume (group average),"G3, 81 mg/kg [sic] PO daily, n = 11, Day 0 post 1st dosing",64.3 mm^3
same,HCT-116 Tumor volume (group average),"G3, 81 mg/kg [sic] PO daily, n = 11, Day 4 post 1st dosing",106.0 mm^3
same,HCT-116 Tumor volume (group average),"G3, 81 mg/kg [sic] PO daily, n = 11, Day 7 post 1st dosing",214.6 mm^3
same,HCT-116 Tumor volume (group average),"G3, 81 mg/kg [sic] PO daily, n = 11, Day 11 post 1st dosing",391.4 mm^3
same,HCT-116 Tumor volume (group average),"G3, 81 mg/kg [sic] PO daily, n = 11, Day 14 post 1st dosing",676.6 mm^3
same,HCT-116 Tumor volume (group average),"G3, 81 mg/kg [sic] PO daily, n = 11, Day 18 post 1st dosing",1210.3 mm^3
same,HCT-116 Tumor volume (group average),"G3, 81 mg/kg [sic] PO daily, n = 11, Day 21 post 1st dosing",1680.1 mm^3
same,HCT-116 Tumor volume (group average),"G3, 81 mg/kg [sic] PO daily, n = 11, Day 25 post 1st dosing",1868.0 mm^3
same,HCT-116 Tumor volume (group average),"G3, 81 mg/kg [sic] PO daily, n = 11, Day 28 post 1st dosing",1979.2 mm^3
same,HCT-116 Tumor volume (group average),"G4, 324 mg/kg PO daily, n = 11, Day 0 post 1st dosing",64.2 mm^3
same,HCT-116 Tumor volume (group average),"G4, 324 mg/kg PO daily, n = 11, Day 4 post 1st dosing",92.9 mm^3
same,HCT-116 Tumor volume (group average),"G4, 324 mg/kg PO daily, n = 11, Day 7 post 1st dosing",172.3 mm^3
same,HCT-116 Tumor volume (group average),"G4, 324 mg/kg PO daily, n = 11, Day 11 post 1st dosing",310.5 mm^3
same,HCT-116 Tumor volume (group average),"G4, 324 mg/kg PO daily, n = 11, Day 14 post 1st dosing",506.3 mm^3
same,HCT-116 Tumor volume (group average),"G4, 324 mg/kg PO daily, n = 11, Day 18 post 1st dosing",654.9 mm^3
same,HCT-116 Tumor volume (group average),"G4, 324 mg/kg PO daily, n = 11, Day 21 post 1st dosing",890.6 mm^3
same,HCT-116 Tumor volume (group average),"G4, 324 mg/kg PO daily, n = 11, Day 25 post 1st dosing",1090.1 mm^3
same,HCT-116 Tumor volume (group average),"G4, 324 mg/kg PO daily, n = 11, Day 28 post 1st dosing",1325.7 mm^3
same,"maximum anti-tumor efficacy, reduction in tumor volume",observed on Day 22 (so in the source),48%
